According to patent US9695192B2, “Fused heterocyclic compounds as ion channel modulators” (GILEAD SCIENCES, INC., priority 2011, dated 2017):

biological target: wild-type human cardiac sodium channel, hNav1.5 (Homo sapiens, UniProt Q14524); experiment: Late INa screening assay (QPatch whole cell patch clamp, tefluthrin-enhanced late sodium current); format: cell-based; conditions: HEK293 hNav1.5, late INa activated with 10 μM Tefluthrin
Protocol: The late sodium current (Late INa) and peak sodium current (Peak INa) assays are performed on an automated electrophysiology platform, QPatch 16X (Sophion Bioscience, Copenhagen, Denmark), which uses the whole cell patch clamp technique to measure currents through the cell membrane of up to 16 cells at a time. The assay uses an HEK293 (human embryonic kidney) cell line heterologously expressing the wild-type human cardiac sodium channel, hNav1.5, purchased from Millipore (Billerica, Mass.). No beta subunits were coexpressed with the Na channel alpha subunit. Cells are maintained with standard tissue culture procedures and stable channel expression is maintained with 400 μg/mL Geneticin in the culture medium. Cells isolated for use on QPatch are incubated for 5 minutes in Detachin 1X (Genlantis, San Diego, USA) at 37° C. to ensure that 80-90% of the cells are single and not part of a cell cluster. Experiments are carried out at 23-25° C.
For both the Late INa and Peak INa assays, series resistance compensation is set to 100% and series resistance and whole-cell compensation are performed automatically. Currents are digitized at 25 kHz and low-pass filtered at 12 kHz and 10 kHz for the late and peak INa assays, respectively. Currents through open sodium channels are automatically recorded and stored in the Sophion Bioscience Oracle database (Sophion Bioscience, Copenhagen, Denmark). Analysis is performed using QPatch Assay and database software and data are compiled in Excel.
Compound stocks are routinely made by the Gilead Sample Bank in plastic vials to 10 mM in dimethyl sulfoxide (DMSO). In some cases, when compounds are not soluble in DMSO, they are made in 100% ethanol. Stocks are sonicated as necessary. The extracellular solution for screening Late INa is composed of: 140 mM NaCl, 4 mM KCl, 1.8 mM CaCl2, 0.75 mM MgCl2 and 5 mM HEPES with pH adjusted to 7.4 using NaOH. The intracellular solution used to perfuse the inside of the cells for both the Late INa and Peak INa assays contains: 120 mM CsF, 20 mM CsCl, 5 mM EGTA, 5 mM HEPES and pH adjusted to 7.4 with CsOH. Compounds are diluted in extracellular solution to 1 μM in glass vials and then transferred to glass well plates before robotic addition to the cells. A 0 mM Na extracellular solution (0 Na-ECF) is used at the end of each experiment for the Late INa and Peak INa assays to measure baseline current contains: 140 mM N-methyl-D-glucamine; 4 mM KCl; 1.8 mM CaCl2; 0.75 mM MgCl2; 5 mM HEPES and pH was adjusted to 7.4 with HCl.
For the hNav1.5 Late INa assay, sodium channels are activated every 10 seconds (0.1 Hz) by depolarizing the cell membrane to −20 mV for 250 milliseconds (ms) from a holding potential of −120 mV. In response to a −20 mV voltage step, typical hNav1.5 sodium currents activate rapidly to a peak negative current and then inactivate nearly completely within 3-4 ms.
Compounds were tested to determine their activity in blocking the late sodium current. Late INa was generated by adding 10 μM Tefluthrin (pyrethroid) to the extracellular solution while recording Na currents. To confirm the block of late INa observed using the automated screening method, a second late INa enhancer (ATX-II) and the manual patch clamp method were used. ATX-II and tefluthrin occupy distinct, non-overlapping binding sites and modify Na^+ channel function differently to increase late INa. Compounds tested have been found generally to inhibit the enhanced late INa caused by either late INa enhancer. For the purposes of the screening, late INa is defined as the mean current between 225 ms and 250 ms after stepping to −20 mV to activate Na channels. After establishing the whole cell recording configuration, late INa activator is added to each well 4 times over a 16-17 minute period so that the late component of the Na current reaches a stable value. Compounds were then added (typically at 1 μM), in the presence of the late INa activator, with 3 additions over the course of 7 or 8 minutes. […]

Sequence of wild-type human cardiac sodium channel, hNav1.5 (Q14524 whole entry): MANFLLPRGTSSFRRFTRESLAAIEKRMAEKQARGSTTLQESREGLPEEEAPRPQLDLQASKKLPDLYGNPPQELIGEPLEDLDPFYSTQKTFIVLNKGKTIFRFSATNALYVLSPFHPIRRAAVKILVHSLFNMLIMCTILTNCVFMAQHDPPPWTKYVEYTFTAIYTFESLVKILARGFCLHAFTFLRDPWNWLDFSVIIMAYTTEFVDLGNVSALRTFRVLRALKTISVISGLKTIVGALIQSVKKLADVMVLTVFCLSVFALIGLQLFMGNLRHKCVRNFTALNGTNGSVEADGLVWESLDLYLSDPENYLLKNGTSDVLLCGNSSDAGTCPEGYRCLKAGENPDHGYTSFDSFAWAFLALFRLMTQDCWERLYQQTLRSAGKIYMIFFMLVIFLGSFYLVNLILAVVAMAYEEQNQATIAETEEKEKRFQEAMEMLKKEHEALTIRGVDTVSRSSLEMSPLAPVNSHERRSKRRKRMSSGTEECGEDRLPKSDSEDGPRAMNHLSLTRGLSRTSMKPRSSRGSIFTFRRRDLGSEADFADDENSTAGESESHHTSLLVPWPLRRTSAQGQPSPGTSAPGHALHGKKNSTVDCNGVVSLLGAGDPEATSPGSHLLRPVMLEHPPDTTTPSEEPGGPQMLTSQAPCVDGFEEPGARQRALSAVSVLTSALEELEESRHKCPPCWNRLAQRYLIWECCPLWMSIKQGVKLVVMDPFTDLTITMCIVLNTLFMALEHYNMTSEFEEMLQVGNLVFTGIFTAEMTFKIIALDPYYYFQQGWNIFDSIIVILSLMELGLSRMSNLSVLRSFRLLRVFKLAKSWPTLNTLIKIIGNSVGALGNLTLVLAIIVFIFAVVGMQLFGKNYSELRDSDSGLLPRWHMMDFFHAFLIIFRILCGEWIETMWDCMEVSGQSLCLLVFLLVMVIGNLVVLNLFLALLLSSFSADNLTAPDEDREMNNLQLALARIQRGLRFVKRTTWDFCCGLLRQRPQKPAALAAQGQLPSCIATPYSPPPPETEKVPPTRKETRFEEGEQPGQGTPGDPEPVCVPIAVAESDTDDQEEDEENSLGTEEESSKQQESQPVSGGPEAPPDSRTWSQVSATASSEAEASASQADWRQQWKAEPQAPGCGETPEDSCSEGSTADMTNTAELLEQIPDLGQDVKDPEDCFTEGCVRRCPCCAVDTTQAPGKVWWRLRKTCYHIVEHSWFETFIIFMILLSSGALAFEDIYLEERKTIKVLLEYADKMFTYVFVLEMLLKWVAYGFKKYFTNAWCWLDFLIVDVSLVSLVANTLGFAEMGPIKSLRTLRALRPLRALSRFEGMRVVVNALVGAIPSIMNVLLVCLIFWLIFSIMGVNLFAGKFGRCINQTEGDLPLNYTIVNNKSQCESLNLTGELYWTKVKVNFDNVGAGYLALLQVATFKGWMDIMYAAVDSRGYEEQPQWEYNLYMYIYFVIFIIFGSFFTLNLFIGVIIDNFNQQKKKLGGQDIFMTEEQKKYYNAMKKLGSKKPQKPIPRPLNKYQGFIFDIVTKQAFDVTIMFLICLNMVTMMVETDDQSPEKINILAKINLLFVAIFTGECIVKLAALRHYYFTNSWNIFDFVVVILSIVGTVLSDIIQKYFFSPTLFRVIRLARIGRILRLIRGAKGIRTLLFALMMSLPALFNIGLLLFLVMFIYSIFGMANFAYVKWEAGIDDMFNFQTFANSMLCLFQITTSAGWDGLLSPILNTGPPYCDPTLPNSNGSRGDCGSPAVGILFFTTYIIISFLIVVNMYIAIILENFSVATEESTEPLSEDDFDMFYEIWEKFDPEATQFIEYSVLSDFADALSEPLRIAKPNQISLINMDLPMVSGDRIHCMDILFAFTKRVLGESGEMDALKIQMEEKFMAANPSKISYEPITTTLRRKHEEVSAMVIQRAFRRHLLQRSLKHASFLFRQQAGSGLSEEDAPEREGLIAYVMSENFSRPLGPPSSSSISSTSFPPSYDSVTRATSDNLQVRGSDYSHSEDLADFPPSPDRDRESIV

| Compound | inhibition at 1 µM |
| --- | --- |
| FC(F)(F)c1ccc(-c2ccc3c(c2)-c2nc(C4CC4)cn2CCO3)cc1 [Compound I-20, 2-cyclopropyl-10-(4-(trifluoromethyl)phenyl)-5,6-dihydrobenzo[f]imidazo[1,2-d][1,4]oxazepine] | 12% |
| FC(F)(F)c1ccc(-c2ccc3c(c2)C(NCCn2ccnc2)=NCCO3)cc1 [II-14, N-(2-(1H-imidazol-1-yl)ethyl)-7-(4-(trifluoromethyl)phenyl)-2,3-dihydrobenzo[f][1,4]oxazepin-5-amine] | 17% |
| Fc1cccnc1CNC1=NCCOc2ccc(-c3ccc(C(F)(F)F)cc3)cc21 [II-9, N-((3-fluoropyridin-2-yl)methyl)-7-(4-(trifluoromethyl)phenyl)-2,3-dihydrobenzo[f][1,4]oxazepin-5-amine] | 23% |
| FC(F)(F)c1ccc(-c2ccc3c(c2)C(N2CCOCC2)=NCCO3)cc1 [II-1, 5-morpholino-7-(4-(trifluoromethyl)phenyl)-2,3-dihydrobenzo[f][1,4]oxazepine] | 21% |
| FC(F)(F)c1ccc(-c2ccc3c(c2)C(N2CCC(NCc4ncccn4)C2)=NCCO3)cc1 (centres unmarked) [II-37, N-(pyrimidin-2-ylmethyl)-1-(7-(4-(trifluoromethyl)phenyl)-2,3-dihydrobenzo[f][1,4]oxazepin-5-yl)pyrrolidin-3-amine] | 20% |
| CC(=O)c1cnc2n1CCOc1ccc(-c3ccc(C(F)(F)F)cc3)cc1-2 [Compound I-15, 1-(10-(4-(trifluoromethyl)phenyl)-5,6-dihydrobenzo[f]imidazo[1,2-d][1,4]oxazepin-3-yl)ethanone] | 12% |
| O=C(O)c1cn2c(n1)-c1cc(-c3ccc(C(F)(F)F)cc3)ccc1OCC2 [Compound I-22, 10-(4-(trifluoromethyl)phenyl)-5,6-dihydrobenzo[f]imidazo[1,2-d][1,4]oxazepine-2-carboxylic acid] | 5% |
| CC(C)(C)OC(=O)NC1CN(C2=NCCOc3ccc(-c4ccc(C(F)(F)F)cc4)cc32)C1 [II-12, tert-butyl 1-(7-(4-(trifluoromethyl)phenyl)-2,3-dihydrobenzo[f][1,4]oxazepin-5-yl)azetidin-3-ylcarbamate] | 9% |
| FC(F)(F)c1ccc(-c2ccc3c(c2)C(Nc2nnn[nH]2)=NCCO3)cc1 [II-26, N-(1H-tetrazol-5-yl)-7-(4-(trifluoromethyl)phenyl)-2,3-dihydrobenzo[f][1,4]oxazepin-5-amine] | 14% |
| FC(F)(F)c1ccc(-c2ccc3c(c2)C(Nc2ccccc2)=NCCO3)cc1 [II-32, N-phenyl-7-(4-(trifluoromethyl)phenyl)-2,3-dihydrobenzo[f][1,4]oxazepin-5-amine] | 26% |
| FC1(F)CCN(C2=NCCOc3ccc(-c4ccc(C(F)(F)F)cc4)cc32)C1 [II-6, 5-(3,3-difluoropyrrolidin-1-yl)-7-(4-(trifluoromethyl)phenyl)-2,3-dihydrobenzo[f][1,4]oxazepine] | 7% |
| FC(F)(F)c1ccc(-c2ccc3c(c2)C2=NCCCN2CCO3)cc1 [Compound I-8, 11-(4-(trifluoromethyl)phenyl)-3,4,6,7-tetrahydro-2H-benzo[f]pyrimido[1,2-d][1,4]oxazepine] | 9% |
| O=C(N[C@@H]1CCN(C2=NCCOc3ccc(-c4ccc(C(F)(F)F)cc4)cc32)C1)c1ccccn1 [II-47, (R)—N-(1-(7-(4-(trifluoromethyl)phenyl)-2,3-dihydrobenzo[f][1,4]oxazepin-5-yl)pyrrolidin-3-yl)picolinamide] | 18% |
| NC1CN(C2=NCCOc3ccc(-c4ccc(C(F)(F)F)cc4)cc32)C1 [II-18, 1-(7-(4-(trifluoromethyl)phenyl)-2,3-dihydrobenzo[f][1,4]oxazepin-5-yl)azetidin-3-amine] | 9% |
| Cn1cncc1-c1cn2c(n1)-c1cc(-c3ccc(C(F)(F)F)cc3)ccc1OCC2 [Compound I-23, 2-(1-methyl-1H-imidazol-5-yl)-10-(4-(trifluoromethyl)phenyl)-5,6-dihydrobenzo[f]imidazo[1,2-d][1,4]oxazepine] | 3% |
| Cn1c(CNC2=NCCOc3ccc(-c4ccc(C(F)(F)F)cc4)cc32)nc2ccccc21 [II-33, N-((1-methyl-1H-benzo[d]imidazol-2-yl)methyl)-7-(4-(trifluoromethyl)phenyl)-2,3-dihydrobenzo[f][1,4]oxazepin-5-amine] | 34% |
| FC(F)(F)c1ccc(-c2ccc3c(c2)C(Nc2ccccn2)=NCCO3)cc1 [II-19, N-(pyridin-2-yl)-7-(4-(trifluoromethyl)phenyl)-2,3-dihydrobenzo[f][1,4]oxazepin-5-amine] | 43% |
| C[C@H]1CN(C(=O)OC(C)(C)C)CCN1C1=NCCOc2ccc(-c3ccc(C(F)(F)F)cc3)cc21 [II-53, (S)-tert-butyl 3-methyl-4-(7-(4-(trifluoromethyl)phenyl)-2,3-dihydrobenzo[f][1,4]oxazepin-5-yl)piperazine-1-carboxylate] | 2% |
| CN[C@H]1CCN(C2=NCCOc3ccc(-c4ccc(C(F)(F)F)cc4)cc32)C1 [II-44, (S)—N-methyl-1-(7-(4-(trifluoromethyl)phenyl)-2,3-dihydrobenzo[f][1,4]oxazepin-5-yl)pyrrolidin-3-amine] | 9% |
| CN[C@@H]1CCN(C2=NCCOc3ccc(-c4ccc(C(F)(F)F)cc4)cc32)C1 [II-39, (R)—N-methyl-1-(7-(4-(trifluoromethyl)phenyl)-2,3-dihydrobenzo[f][1,4]oxazepin-5-yl)pyrrolidin-3-amine] | 26% |
| FC1(F)CCN(C2=NCCOc3ccc(-c4ccc(C(F)(F)F)cc4)cc32)CC1 [II-21, 5-(4,4-difluoropiperidin-1-yl)-7-(4-(trifluoromethyl)phenyl)-2,3-dihydrobenzo[f][1,4]oxazepine] | 13% |
| OC(CN[C@@H]1CCN(C2=NCCOc3ccc(-c4ccc(C(F)(F)F)cc4)cc32)C1)COc1cccc2ccccc12 (stereo partly drawn) [II-61, 1-(naphthalen-1-yloxy)-3-((R)-1-(7-(4-(trifluoromethyl)phenyl)-2,3-dihydrobenzo[f][1,4]oxazepin-5-yl)pyrrolidin-3-ylamino)propan-2-ol] | 12% |
| CN(C1=NCCOc2ccc(-c3ccc(C(F)(F)F)cc3)cc21)C1CC1 [II-8, N-cyclopropyl-N-methyl-7-(4-(trifluoromethyl)phenyl)-2,3-dihydrobenzo[f][1,4]oxazepin-5-amine] | 13% |
| FC(F)(F)c1ccc(-c2ccc3c(c2)-c2nnc(C4CC4)n2CCO3)cc1 [Compound I-5, 3-cyclopropyl-10-(4-(trifluoromethyl)phenyl)-5,6-dihydrobenzo[f][1,2,4]triazolo[4,3-d][1,4]oxazepine] | 18% |
| OC1CCN(C2=NCCOc3ccc(-c4ccc(C(F)(F)F)cc4)cc32)C1 (centres unmarked) [II-23, 1-(7-(4-(trifluoromethyl)phenyl)-2,3-dihydrobenzo[f][1,4]oxazepin-5-yl)pyrrolidin-3-ol] | 9% |
| O=C(c1ncccn1)N1CCC(NC2=NCCOc3ccc(-c4ccc(C(F)(F)F)cc4)cc32)C1 (centres unmarked) [II-35, pyrimidin-2-yl(3-(7-(4-(trifluoromethyl)phenyl)-2,3-dihydrobenzo[f][1,4]oxazepin-5-ylamino)pyrrolidin-1-yl)methanone] | 4% |
